This passage reports Km and Vmax results from paper PMC5733001, “Biochemical and Thermodynamical Characterization of Glucose Oxidase, Invertase, and Alkaline Phosphatase Secreted by Antarctic Yeasts” (Frontiers in Molecular Biosciences, 2017).

Series [1] relates to T1, GOD (glucose oxidase) from G. gastrica.
T1 construct: native extracellular enzyme purified from yeast culture supernatant (ammonium sulfate, Superdex 75); Mr 91,000 by SDS-PAGE
As to the kind of experiment: Michaelis-Menten initial rates; peroxidase / o-dianisidine assay, […] nm. Conditions: 64 °C, 2 M CaCl2; glucose 0.006-11 mM; O2 as co-substrate. The format is biochemical, Goffeauzyma gastrica.

The test system of series [2] is T2, ALP (alkaline phosphatase) from Dioszegia sp.
T2 construct: native extracellular enzyme purified from yeast culture supernatant (ammonium sulfate, anion exchange); Mr 39,000 by SDS-PAGE
Nature of the series: Michaelis-Menten initial rates; alkaline phosphatase assay kit, […] nm. The format is biochemical. Conditions: 47 °C, pH 9.0; pNPP 0.001-2 mM.

Substrate in the series “purified protein”: OC[C@H]1O[C@@](CO)(O[C@H]2O[C@H](CO)[C@@H](O)[C@H](O)[C@H]2O)[C@@H](O)[C@@H]1O
Nature of the series: purified protein. The format is biochemical, Hansenula anomala. As to conditions: 60 °C, pH 5.0, sucrose 1-100 mM.

For orientation: Km means the concentration of substrate that gives half-maximal velocity. For the molecule `OC[C@H]1OC(O)[C@H](O)[C@@H](O)[C@@H]1O` (stereo partly shown) [glucose], in series [1], the Km is 1600 µM.

Turning to `O=[N+]([O-])c1ccc(OP(=O)(O)O)cc1` [p-nitrophenylphosphate], the Michaelis constant (Km) in series [2] amounted to 590 µM.

B1: Inv (invertase) from W. anomalus (Hansenula anomala) (protein)
chain: STEYLRPQIHLTPDQGWMNDPNGMFYDRKDKLWHVYFQHNPDKKSIWATPVTWGHSTSKDLLTWDYHGNALEPENDDEGIFSGSVVVDRNNTSGFFNDSTDPEQRIVAIYTNNAQLQTQEIAYSLDKGYSFIKYDQNPVINVNSSQQRDPKVLWHDESNQWIMVVAKTQEFKVQIYGSPDLKKWDLKSNFTSNGYLGFQYECPGLFKLPIENPLNDTVTSKWVLLLAINPGSPLGGSINEYFIGDFDGTTFHPDDGATRFMDIGKDFYAFQSFDNTEPEDGALGLAWASNWQYANTVPTENWRSSMSLVRNYTLKYVDVNPENYGLTLIQKPVYDTKETRLNETLKTLETINEYEVNDLKLDKSSFVATDFNTERNATGVFEFDLKFTQTDLKMGYSNMTTQFGLYIHSQTVKGSQETLQLVFDTLSTTWYIDRTTQHSFQRNSPVFTERISTYVEKIDTTDQGNVYTLYGVVDRNILELYFNDGSIAMTNTFFFREGKIPTSFEVVCDSEKSFITIDELSVRELARK
notes: native extracellular enzyme purified from yeast culture supernatant (ammonium sulfate, Superdex 200); Mr 101,000 by SDS-PAGE
As usually defined, the Vmax is the rate approached at saturating substrate. Consider B1, for which, in the series “purified protein”, the Km came out at 78600 µM and the maximum rate (Vmax) turned out to be 99500 µM/min.
